In the supplement of paper PMC10307832:

Compound: CC1CC(=O)N(C2=CN=C(N=C2N1C3CCCC3)NC4=C(C=C(C=C4)C(=O)NC5CCN(CC5)C)OC)C [NPK76-II-72-1] + C[C@]1(O)C[C@@H](c2nc(-c3ccc4ccc(-c5ccccc5)nc4c3)c3c(N)nccn32)C1 [Linsitinib] (partner 1 µM)
Experiment: relative viability (nuclei count vs DMSO), 5 days (fraction); higher = more cells survive
Conditions: first compound 0.01 µM
Procedure, shortened: (§1)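 Relative viability divides the nuclei count in treated wells by that in vehicle wells. Lung cancer cell lines were seeded in 1536-well plates, dosed by pin tool the next day, and fixed and stained after 5 days in one step with final 0.05% Triton X-100, 1% formaldehyde and 1 ug/ml Hoechst. Dosing was a single drug or a fixed anchor-drug dose plus five library-drug doses (not always all listed) in √10 steps, and values are medians of duplicate plates imaged at 4×.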

Cell Line	relative viability
EMC-BAC-2	0.814
NCI-H2085	0.914
HCC-366	0.54
NCI-H1666	0.78
NCI-H596	1.02
LK-2	0.543
NCI-H2087	1.02
SK-MES-1	1.05
H3255	0.973
COR-L23	0.869
COR-L 105	1.01
LOU-NH91	0.941
NCI-H2405	0.88
HOP-62	0.908
HCC-44	0.634
LU99A	0.57
BEN	0.946
HARA	1.03
NCI-H322M	0.853
NCI-H2009	1.18
A-427	1.1
NCI-H661	0.536
NCI-H1734	0.896
NCI-H460	0.721
NCI-H2347	0.925
SK-LU-1	1.07
201T	1.01

Same assay, conditions: first compound 0.03162 µM

Cell Line	relative viability
NCI-H838	1.05
NCI-H520	0.83
NCI-H2126	0.777
EMC-BAC-2	0.848
NCI-H2085	0.997
HCC-366	0.688
NCI-H1666	0.815
NCI-H596	1.14
LK-2	0.69
NCI-H2087	0.996
SK-MES-1	1.07
H3255	0.994
COR-L23	0.918
COR-L 105	0.936
LOU-NH91	0.932
NCI-H2405	1.01

Cell Line	relative viability
HOP-62	1.05
HCC-44	0.701
LU99A	0.522
BEN	1.01
HARA	0.921
HCC-78	0.529
NCI-H322M	1.1
LCLC-97TM1	0.16
NCI-H2009	1.18
A-427	1.09
NCI-H661	0.557
NCI-H1734	0.899
NCI-H460	0.787
NCI-H2347	1.03
SK-LU-1	1.09
201T	0.969

Same assay, conditions: first compound 0.1 µM

Cell Line	relative viability
NCI-H838	1.11
NCI-H520	0.804
NCI-H2126	0.701
EMC-BAC-2	0.848
NCI-H2085	0.934
HCC-366	0.704
NCI-H1666	0.783
NCI-H596	1.06
LK-2	0.729
NCI-H2087	0.909
SK-MES-1	0.994
H3255	0.915
COR-L23	0.898
COR-L 105	1.09
LOU-NH91	0.984
NCI-H2405	0.905

Cell Line	relative viability
HOP-62	0.922
HCC-44	0.635
LU99A	0.584
BEN	0.87
HARA	0.929
HCC-78	0.487
NCI-H322M	0.805
LCLC-97TM1	0.167
NCI-H2009	1.08
A-427	1.15
NCI-H661	0.546
NCI-H1734	0.883
NCI-H460	0.842
NCI-H2347	1
SK-LU-1	1.16
201T	1.06

Same assay, conditions: first compound 0.3162 µM

Cell Line	relative viability
NCI-H838	1.01
NCI-H520	0.922
NCI-H2126	0.671
EMC-BAC-2	0.747
NCI-H2085	0.87
HCC-366	0.707
NCI-H1666	0.8
NCI-H596	1.13
LK-2	0.415
NCI-H2087	1
SK-MES-1	0.995
H3255	0.677
COR-L23	0.908
COR-L 105	0.738
LOU-NH91	0.681
NCI-H2405	0.819

Cell Line	relative viability
HOP-62	1.05
HCC-44	0.681
LU99A	0.479
BEN	0.881
HARA	0.77
NCI-H322M	0.961
LCLC-97TM1	0.192
NCI-H2009	1.2
A-427	1.14
NCI-H661	0.525
NCI-H1734	0.884
NCI-H460	0.762
NCI-H2347	0.896
SK-LU-1	1.02
201T	1.06

Same assay, conditions: first compound 1 µM

Cell Line	relative viability
NCI-H838	1.03
NCI-H520	1.07
NCI-H2126	0.752
EMC-BAC-2	0.793
NCI-H2085	0.923
HCC-366	0.777
NCI-H1666	0.79
NCI-H596	1.09
LK-2	0.743
NCI-H2087	1.11
SK-MES-1	1.15
H3255	1.14
COR-L23	1.04
COR-L 105	1.13
LOU-NH91	1.04
NCI-H2405	1.08

Cell Line	relative viability
HOP-62	0.89
HCC-44	0.716
LU99A	0.518
BEN	0.879
HARA	1.03
HCC-78	0.516
NCI-H322M	0.976
LCLC-97TM1	0.156
NCI-H2009	1.15
A-427	1.13
NCI-H661	0.519
NCI-H1734	0.904
NCI-H460	0.895
NCI-H2347	0.983
SK-LU-1	1.33
201T	1.09

Compound: CC[C@@H]1C(=O)N(C)c2cnc(Nc3ccc(C(=O)NC4CCN(C)CC4)cc3OC)nc2N1C1CCCC1 [BI-2536] + COc1cccc2cc(-c3nc([C@H]4CC[C@H](C(=O)O)CC4)n4ncnc(N)c34)[nH]c12 [OSI-027] (partner 0.5 µM)
Experiment: as above
Conditions: first compound 0.01 µM
Procedure, shortened: as §1

Cell Line	relative viability
NCI-H838	0.386
NCI-H520	0.277
